{"source": "patent US5384113A", "about": "“Stabilizers to prevent autoradiolysis of radiolabeled peptides and proteins” (priority 1993, dated 1995)", "key": {"[1]": {"assay": "Stability (radiochemical purity) of 111In DTPA-octreotide solution at room temperature by reverse-phase HPLC with radiometric detector", "format": "physicochemical", "conditions": "alone or in combination with other stabilizers; summary of Examples 1-7", "description": "To a lyophilized kit containing 10 μg DTPA-octreotide (N-[3,6,9,9-tetrakis(carboxymethyl)-3,6,9-triazanonanoyl]-D-phenylalanyl-L -hemicystyl-L-phenylalanyl-D-tryptophyl-L-lysyl-L-threonyl-L-hemicydyyl-L-t hreoninol cyclic (2→7) disulfide, MW=1394.60 gm/mol), 5.6 mg trisodium citrate dihydrate, and 0.4 mg citric acid monohydrate was added 1.0 ml of 0.02M HCl containing 4.70 mCi of ^111 In. The pH of the solution was 4.5. The solution was kept at room temperature and monitored for the amount of ^111 In DTPA-octreotide using reverse-phase HPLC and a Beckman 170 radiometric detector. […]\nTo a lyophilized kit containing 10 μg DTPA-octreotide (N-[3,6,9,9-tetrakis(carboxymethyl)-3,6,9-triazanonanoyl]-D-phenylalanyl-L -hemicystyl-L-phenylalanyl-D-tryptophyl-L-lysyl-L-threonyl-L-hemicydyyl-L-t hreoninol cyclic (2→7) disulfide, MW=1394.60 gm/mol), 5.6 mg trisodium citrate dihydrate, 0.4 mg citric acid monohydrate, and 1.0 mg inositol was added 1.0 ml of 0.02M HCl containing 6.04 mCi of ^111 In. […] The solution was kept at room temperature and monitored for the amount of ^111 In DTPA-octreotide using reverse-phase HPLC and a Beckman 170 radiometric detector. […]"}, "somatostatin receptors": {"test_system": "somatostatin receptors", "conditions": "variety of human tumors; cited from earlier work"}}, "data": [{"smiles": "O=C(O)c1cc(O)ccc1O", "note": "[gentisic acid, 2,5-dihydroxybenzoic acid]", "values": [{"measurement": "Prevention of radiolysis of radiolabeled peptides (stabilizer effect)", "setting": "[1]", "value": "very effective at preventing radiolysis"}]}, {"smiles": "C[C@@H](O)[C@@H]1NC(=O)[C@H](CCCCN)NC(=O)[C@@H](Cc2c[nH]c3ccccc23)NC(=O)[C@H](Cc2ccccc2)NC(=O)[C@@H](NC(=O)[C@H](N)Cc2ccccc2)CSSC[C@@H](C(=O)N[C@H](CO)[C@@H](C)O)NC1=O", "note": "[octreotide]", "values": [{"measurement": "Binding affinity to somatostatin receptors", "setting": "somatostatin receptors", "value": "very high binding affinity"}]}]}
